Assay results reported in PubChem BioAssay (NCI).
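Following 48 hours of exposure in 96-well plates, responses at five concentrations were used to interpolate endpoints linearly. TGI: concentration producing complete growth inhibition.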

What was measured:
Assay in all cases: NCI tumour cell line growth inhibition, 48 h
[1] = system: 786-0 renal
[2] = system: A498 renal
[3] = system: A549 NSCLC
[4] = system: ACHN renal
[5] = system: BT-549 breast
[6] = system: CAKI-1 renal
[7] = system: CCRF-CEM leukemia
[8] = system: COLO 205 colon
[9] = system: DU-145 prostate
[10] = system: EKVX NSCLC
[11] = system: HCC-2998 colon
[12] = system: HCT-116 colon
[13] = system: HCT-15 colon
[14] = system: HL-60(TB) leukemia
[15] = system: HOP-62 NSCLC
[16] = system: HOP-92 NSCLC
[17] = system: HS 578T breast
[18] = system: HT29 colon
[19] = system: IGROV1 ovarian
[20] = system: K-562 leukemia
[21] = system: KM12 colon
[22] = system: LOX IMVI melanoma
[23] = system: M14 melanoma
[24] = system: MALME-3M melanoma
[25] = system: MCF7 breast
[26] = system: MDA-MB-231 breast
[27] = system: MDA-MB-435
[28] = system: MDA-N
[29] = system: MOLT-4 leukemia
[30] = system: NCI-H226 lung
[31] = system: NCI-H23 lung
[32] = system: NCI-H460 lung
[33] = system: NCI-H522 lung
[34] = system: NCI/ADR-RES ovarian
[35] = system: OVCAR-3 ovarian
[36] = system: OVCAR-4 ovarian
[37] = system: OVCAR-5 ovarian
[38] = system: OVCAR-8 ovarian
[39] = system: PC-3 prostate
[40] = system: RPMI-8226 leukemia
[41] = system: RXF 393 renal
[42] = system: SF-268 CNS
[43] = system: SF-295 CNS
[44] = system: SF-539 CNS
[45] = system: SK-MEL-2 melanoma
[46] = system: SK-MEL-28 melanoma
[47] = system: SK-MEL-5 melanoma
[48] = system: SK-OV-3 ovarian
[49] = system: SN12C renal
[50] = system: SNB-19 CNS
[51] = system: SNB-75 CNS
[52] = system: SR leukemia
[53] = system: SW-620 colon
[54] = system: T-47D breast
[55] = system: TK-10 renal
[56] = system: U251 CNS
[57] = system: UACC-257 melanoma
[58] = system: UACC-62 melanoma
[59] = system: UO-31 renal

In the case of `C=C1c2nc3ccccc3n2C=C(c2ccc(OC)cc2)N1c1ccccc1`, the TGI [1] is reported as > 100 µM, the TGI [2] is reported as > 100 µM and the TGI [3] is reported as > 100 µM. For the same compound, the TGI [4] was > 100 µM, the TGI [5] was 71 µM and the TGI [6] was > 100 µM. For the same compound, the TGI [7] was > 57.9 µM, the TGI [8] was > 70.9 µM and the TGI [9] was > 100 µM. The TGI [10] was > 100 µM, the TGI [11] was 39.8 µM and the TGI [12] was > 100 µM. For the same compound, the TGI [13] was > 56.8 µM, the TGI [14] was 7.93 µM and the TGI [15] was > 100 µM. For the same compound, the TGI [16] was > 100 µM, the TGI [17] was > 96.6 µM and the TGI [18] was 26.7 µM. The TGI [19] was > 100 µM, the TGI [20] was > 100 µM and the TGI [21] was > 47.2 µM. For the same compound, the TGI [22] was > 100 µM, the TGI [23] was > 60.4 µM and the TGI [24] was 49.8 µM. The TGI [25] was > 63.5 µM, the TGI [26] was > 100 µM and the TGI [27] was 4.83 µM. The TGI [28] was 8.56 µM, the TGI [29] was > 55.9 µM and the TGI [30] was 22.6 µM. For the same compound, the TGI [31] was 98.5 µM, the TGI [32] was > 34.5 µM and the TGI [33] was 27.2 µM. The TGI [34] was 9.64 µM, the TGI [35] was 98 µM and the TGI [36] was > 100 µM. For the same compound, the TGI [37] was > 100 µM, the TGI [38] was > 69.3 µM and the TGI [39] was > 100 µM. For the same compound, the TGI [40] was 45.1 µM, the TGI [41] was > 76.1 µM and the TGI [42] was > 100 µM. The TGI [43] was > 55.6 µM, the TGI [44] was > 91.2 µM and the TGI [45] was 42.4 µM. For the same compound, the TGI [46] was > 96.7 µM, the TGI [47] was 42.2 µM and the TGI [48] was > 100 µM. The TGI [49] was > 100 µM, the TGI [50] was 48.3 µM and the TGI [51] was 58.3 µM. For the same compound, the TGI [52] was > 24.5 µM, the TGI [53] was > 65.4 µM and the TGI [54] was 98.3 µM. For the same compound, the TGI [55] was > 100 µM, the TGI [56] was > 100 µM and the TGI [57] was > 100 µM. The TGI [58] was > 57.6 µM and the TGI [59] was > 91.3 µM.
`CCN(CC)CCCNc1[nH]ncc2cc3c(nc4ccc(OC)cc43)c(C)c12` gave a TGI [1] of 15.4 µM, a TGI [2] of 30.7 µM and a TGI [3] of 22.2 µM. For the same compound, the TGI [4] was 20.9 µM, the TGI [5] was 30.9 µM and the TGI [6] was 24.7 µM. It also gave a TGI [7] of 16.5 µM, a TGI [8] of 21.2 µM and a TGI [9] of 15.9 µM. For the same compound, the TGI [10] was 31.4 µM, the TGI [11] was 18.8 µM and the TGI [12] was 13 µM. The TGI [13] was 41.3 µM, the TGI [14] was 0.0166 µM and the TGI [15] was 16.4 µM. It also gave a TGI [16] of 29.8 µM, a TGI [17] of 28.5 µM and a TGI [18] of 16.2 µM. It also gave a TGI [19] of 19.5 µM, a TGI [20] of 16.3 µM and a TGI [21] of 15.7 µM. The TGI [22] was 15.8 µM, the TGI [23] was 25.6 µM and the TGI [24] was 28.3 µM. For the same compound, the TGI [25] was 16.6 µM, the TGI [26] was 21.2 µM and the TGI [27] was 23.1 µM. The TGI [28] was 22.3 µM, the TGI [29] was 10.9 µM and the TGI [30] was 22.6 µM. It also gave a TGI [31] of 24.6 µM, a TGI [32] of 17 µM and a TGI [33] of 17.4 µM. For the same compound, the TGI [34] was > 100 µM, the TGI [35] was 19.1 µM and the TGI [36] was 13.8 µM. It also gave a TGI [37] of 24.8 µM, a TGI [38] of 18.9 µM and a TGI [39] of 16.5 µM. For the same compound, the TGI [40] was 46.8 µM, the TGI [41] was 17.7 µM and the TGI [42] was > 48.1 µM. For the same compound, the TGI [43] was 25.7 µM, the TGI [44] was 15.2 µM and the TGI [45] was 33.9 µM. For the same compound, the TGI [46] was 30.8 µM, the TGI [47] was 29.4 µM and the TGI [48] was 22.3 µM. The TGI [49] was 18.7 µM, the TGI [50] was 18 µM and the TGI [51] was 23 µM. For the same compound, the TGI [52] was 33.1 µM, the TGI [53] was 19.4 µM and the TGI [54] was 26.5 µM. It also gave a TGI [55] of 28.8 µM, a TGI [56] of 16 µM and a TGI [57] of 33.7 µM. For the same compound, the TGI [58] was 35.8 µM and the TGI [59] was 23.8 µM.
For `COc1ccc(C(CC(C)=O)c2c(O)c3ccccc3oc2=O)cc1OC` (stereo unspecified), the TGI [1] was > 100 µM, the TGI [2] was > 100 µM and the TGI [3] was > 100 µM. For the same compound, the TGI [4] was > 100 µM, the TGI [5] was > 100 µM and the TGI [6] was > 100 µM. The TGI [7] was > 100 µM, the TGI [8] was > 100 µM and the TGI [9] was > 100 µM. The TGI [10] was > 100 µM, the TGI [11] was > 100 µM and the TGI [12] was > 100 µM. For the same compound, the TGI [13] was > 100 µM, the TGI [14] was > 100 µM and the TGI [15] was > 100 µM. The TGI [16] was > 100 µM, the TGI [17] was > 100 µM and the TGI [18] was > 100 µM. For the same compound, the TGI [19] was > 100 µM, the TGI [20] was > 100 µM and the TGI [21] was > 100 µM. The TGI [22] was > 100 µM, the TGI [23] was > 100 µM and the TGI [24] was > 100 µM. For the same compound, the TGI [25] was > 100 µM, the TGI [26] was > 100 µM and the TGI [27] was > 100 µM. For the same compound, the TGI [28] was > 100 µM, the TGI [29] was > 100 µM and the TGI [30] was > 100 µM. For the same compound, the TGI [31] was > 100 µM, the TGI [32] was > 100 µM and the TGI [33] was > 100 µM. For the same compound, the TGI [34] was > 100 µM, the TGI [35] was > 100 µM and the TGI [36] was > 100 µM. The TGI [37] was > 100 µM, the TGI [38] was > 100 µM and the TGI [39] was > 100 µM. The TGI [40] was > 100 µM, the TGI [41] was > 100 µM and the TGI [42] was > 100 µM. The TGI [43] was > 100 µM, the TGI [44] was > 100 µM and the TGI [45] was > 100 µM. For the same compound, the TGI [46] was > 100 µM, the TGI [47] was > 100 µM and the TGI [48] was > 100 µM. For the same compound, the TGI [49] was > 100 µM, the TGI [50] was > 100 µM and the TGI [51] was > 100 µM. For the same compound, the TGI [52] was > 100 µM, the TGI [53] was > 100 µM and the TGI [54] was > 100 µM. For the same compound, the TGI [55] was > 100 µM, the TGI [56] was > 100 µM and the TGI [57] was > 100 µM. For the same compound, the TGI [58] was > 100 µM and the TGI [59] was > 100 µM.
For `CC(C)NC(=O)OCc1c(COC(=O)NC(C)C)c(-c2ccc[n+](COC(=O)C(C)C)c2)n2c1CCC2`, the TGI [1] was > 100 µM, the TGI [2] was 61.2 µM and the TGI [3] was > 100 µM. For the same compound, the TGI [4] was > 100 µM, the TGI [5] was > 100 µM and the TGI [6] was 74.2 µM. For the same compound, the TGI [7] was > 91.2 µM, the TGI [8] was > 100 µM and the TGI [9] was > 100 µM. The TGI [10] was > 100 µM, the TGI [11] was > 100 µM and the TGI [12] was > 100 µM. For the same compound, the TGI [13] was > 100 µM, the TGI [14] was > 59.4 µM and the TGI [15] was > 100 µM. The TGI [16] was > 94.6 µM, the TGI [17] was > 100 µM and the TGI [18] was > 100 µM. For the same compound, the TGI [19] was > 100 µM, the TGI [20] was > 100 µM and the TGI [21] was > 100 µM. For the same compound, the TGI [22] was > 100 µM, the TGI [23] was > 100 µM and the TGI [24] was > 100 µM. The TGI [25] was > 100 µM, the TGI [26] was > 100 µM and the TGI [27] was > 100 µM. The TGI [28] was > 100 µM, the TGI [29] was > 79.3 µM and the TGI [30] was > 100 µM. The TGI [31] was > 100 µM, the TGI [32] was > 100 µM and the TGI [33] was 91.4 µM. The TGI [34] was > 100 µM, the TGI [35] was > 100 µM and the TGI [36] was > 100 µM. For the same compound, the TGI [37] was > 100 µM, the TGI [38] was > 100 µM and the TGI [39] was > 100 µM. The TGI [40] was > 100 µM, the TGI [41] was > 89.6 µM and the TGI [42] was > 100 µM. For the same compound, the TGI [43] was > 100 µM, the TGI [44] was > 83.3 µM and the TGI [45] was > 100 µM. The TGI [46] was > 100 µM, the TGI [47] was > 100 µM and the TGI [48] was > 100 µM. For the same compound, the TGI [49] was > 100 µM, the TGI [50] was > 100 µM and the TGI [51] was > 100 µM. For the same compound, the TGI [52] was 97.4 µM, the TGI [53] was > 100 µM and the TGI [54] was > 100 µM. The TGI [55] was > 100 µM, the TGI [56] was > 100 µM and the TGI [57] was > 100 µM. For the same compound, the TGI [58] was > 100 µM and the TGI [59] was > 100 µM.
